Converted amounts (≈) assume the structure as drawn. The source made the active and inactive calls. The rule behind the calls is not given here.
How the values were obtained:
Candida tropicalis [1] = assay: Inhibition of Candida tropicalis ATCC750 chitin synthase at 300 ug/ml using UDP-GlcNAc as substrate incubated for 1 hr by microplate reader analysis relative to control; settings: dose 300.0 µg/ml
[2] = Inhibition of Candida tropicalis ATCC750 chitin synthase using UDP-GlcNAc as substrate incubated for 1 hr by microplate reader analysis
Candida albicans [3] = assay: Antifungal activity against Candida albicans ATCC 76615 assessed as reduction in fungal growth incubated for 24 hrs by two fold broth dilution method; assay type: functional
Aspergillus flavus [4] = assay: Antifungal activity against Aspergillus flavus ATCC 16870 assessed as reduction in fungal growth incubated for 24 hrs by two fold broth dilution method; assay type: functional
Aspergillus fumigatus [5] = assay: Antifungal activity against Aspergillus fumigatus GIMCC 3.19 assessed as reduction in fungal growth incubated for 24 hrs by two fold broth dilution method; assay type: functional
Cryptococcus neoformans [6] = assay: Antifungal activity against Cryptococcus neoformans ATCC 32719 assessed as reduction in fungal growth incubated for 24 hrs by two fold broth dilution method; assay type: functional
Candida albicans [7] = assay: Antifungal activity against Candida albicans ATCC 76615 assessed as reduction in fungal growth in presence of sorbitol incubated for 24 hrs by two fold broth dilution method; assay type: functional
Aspergillus flavus [8] = assay: Antifungal activity against Aspergillus flavus ATCC 16870 assessed as reduction in fungal growth in presence of sorbitol incubated for 24 hrs by two fold broth dilution method; assay type: functional
Aspergillus fumigatus [9] = assay: Antifungal activity against Aspergillus fumigatus GIMCC 3.19 assessed as reduction in fungal growth in presence of sorbitol incubated for 24 hrs by two fold broth dilution method; assay type: functional
Cryptococcus neoformans [10] = assay: Antifungal activity against Cryptococcus neoformans ATCC 32719 assessed as reduction in fungal growth in presence of sorbitol incubated for 24 hrs by two fold broth dilution method; assay type: functional
Candida albicans [11] = assay: Antifungal activity against fluconazole resistant Candida albicans ATCC 76615 assessed as reduction in fungal growth incubated for 24 hrs by two fold broth dilution method; assay type: functional
Aspergillus flavus [12] = assay: Antifungal activity against fluconazole resistant Aspergillus flavus ATCC 16870 assessed as reduction in fungal growth incubated for 24 hrs by two fold broth dilution method; assay type: functional
Aspergillus fumigatus [13] = assay: Antifungal activity against fluconazole resistant Aspergillus fumigatus GIMCC 3.19 assessed as reduction in fungal growth incubated for 24 hrs by two fold broth dilution method; assay type: functional
Cryptococcus neoformans [14] = assay: Antifungal activity against fluconazole resistant Cryptococcus neoformans ATCC 32719 assessed as reduction in fungal growth incubated for 24 hrs by two fold broth dilution method; assay type: functional
Candida albicans [15] = assay: Antifungal activity against micafungin resistant Candida albicans ATCC 76615 assessed as reduction in fungal growth incubated for 24 hrs by two fold broth dilution method; assay type: functional
Candida albicans [16] = assay: Antifungal activity against Candida albicans ATCC 76615 incubated for 72 hrs in presence of fluconazole by checker board assay; assay type: functional
Aspergillus flavus [17] = assay: Antifungal activity against Aspergillus flavus ATCC 16870 incubated for 72 hrs in presence of fluconazole by checker board assay; assay type: functional
Aspergillus fumigatus [18] = assay: Antifungal activity against Aspergillus fumigatus GIMCC 3.19 incubated for 72 hrs in presence of fluconazole by checker board assay; assay type: functional
Cryptococcus neoformans [19] = assay: Antifungal activity against Cryptococcus neoformans ATCC 32719 incubated for 72 hrs in presence of fluconazole by checker board assay; assay type: functional
Candida albicans [20] = assay: Antifungal activity against Candida albicans ATCC 76615 assessed as fluconazole MIC incubated for 72 hrs by checker board assay; assay type: functional
Aspergillus flavus [21] = assay: Antifungal activity against Aspergillus flavus ATCC 16870 assessed as fluconazole MIC incubated for 72 hrs by checker board assay; assay type: functional
Aspergillus fumigatus [22] = assay: Antifungal activity against Aspergillus fumigatus GIMCC 3.19 assessed as fluconazole MIC incubated for 72 hrs by checker board assay; assay type: functional
Cryptococcus neoformans [23] = assay: Antifungal activity against Cryptococcus neoformans ATCC 32719 assessed as fluconazole MIC incubated for 72 hrs by checker board assay; assay type: functional
Cryptococcus neoformans [24] = assay: Synergistic antifungal activity against Cryptococcus neoformans ATCC 32719 assessed as fractional inhibitory concentration index incubated for 72 hrs in presence of fluconazole by checker board assay; assay type: functional
Candida albicans [25] = assay: Synergistic antifungal activity against Candida albicans ATCC 76615 assessed as fractional inhibitory concentration index incubated for 72 hrs in presence of fluconazole by checker board assay; assay type: functional
Aspergillus flavus [26] = assay: Synergistic antifungal activity against Aspergillus flavus ATCC 16870 assessed as fractional inhibitory concentration index incubated for 72 hrs in presence of fluconazole by checker board assay; assay type: functional
Aspergillus fumigatus [27] = assay: Synergistic antifungal activity against Aspergillus fumigatus GIMCC 3.19 assessed as fractional inhibitory concentration index incubated for 72 hrs in presence of fluconazole by checker board assay; assay type: functional
Candida albicans [28] = assay: Antifungal activity against Candida albicans ATCC 76615 incubated for 72 hrs in presence of polyoxin B by checker board assay; assay type: functional
Aspergillus flavus [29] = assay: Antifungal activity against Aspergillus flavus ATCC 16870 incubated for 72 hrs in presence of polyoxin B by checker board assay; assay type: functional
Aspergillus fumigatus [30] = assay: Antifungal activity against Aspergillus fumigatus GIMCC 3.19 incubated for 72 hrs in presence of polyoxin B by checker board assay; assay type: functional
Cryptococcus neoformans [31] = assay: Antifungal activity against Cryptococcus neoformans ATCC 32719 incubated for 72 hrs in presence of polyoxin B by checker board assay; assay type: functional
Candida albicans [32] = assay: Synergistic antifungal activity against Candida albicans ATCC 76615 assessed as fractional inhibitory concentration index incubated for 72 hrs in presence of polyoxin B by checker board assay; assay type: functional
Aspergillus flavus [33] = assay: Synergistic antifungal activity against Aspergillus flavus ATCC 16870 assessed as fractional inhibitory concentration index incubated for 72 hrs in presence of polyoxin B by checker board assay; assay type: functional
Aspergillus fumigatus [34] = assay: Synergistic antifungal activity against Aspergillus fumigatus GIMCC 3.19 assessed as fractional inhibitory concentration index incubated for 72 hrs in presence of polyoxin B by checker board assay; assay type: functional
Cryptococcus neoformans [35] = assay: Synergistic antifungal activity against Cryptococcus neoformans ATCC 32719 assessed as fractional inhibitory concentration index incubated for 72 hrs in presence of polyoxin B by checker board assay; assay type: functional
Candida albicans [36] = assay: Antifungal activity against Candida albicans ATCC 76615 assessed as polyoxin B MIC incubated for 72 hrs by checker board assay; assay type: functional
Aspergillus flavus [37] = assay: Antifungal activity against Aspergillus flavus ATCC 16870 assessed as polyoxin B MIC incubated for 72 hrs by checker board assay; assay type: functional
Aspergillus fumigatus [38] = assay: Antifungal activity against Aspergillus fumigatus GIMCC 3.19 assessed as polyoxin B MIC incubated for 72 hrs by checker board assay; assay type: functional
Cryptococcus neoformans [39] = assay: Antifungal activity against Cryptococcus neoformans ATCC 32719 assessed as polyoxin B MIC incubated for 72 hrs by checker board assay; assay type: functional
[40] = Binding affinity to Candida tropicalis ATCC750 chitin synthase assessed as inhibition constant using UDP-GlcNAc as substrate incubated for 10 hrs by Lineweaver-burk plot analysis
Candida tropicalis [41] = assay: Noncompetitive inhibition of Candida tropicalis ATCC750 assessed as decrease in Vmax with constant Km at 0.05 to 0.15 mM using UDP-GlcNAc as substrate incubated for 10 hrs by Lineweaver-burk plot analysis; settings: dose 0.05-0.15 mM

Work on `O=C(/C=C/C(=O)N1CCCC12Cc1ccccc1NC2=O)Nc1ccc(F)cc1` (stereo not given) yielded an inhibition (Candida tropicalis [1]) of 77.9%, an IC50 [2] of 130 µM and an MIC (Candida albicans [3]) of 4 µg/mL (≈ 10.2 µM). The MIC (Aspergillus flavus [4]) was 8 µg/mL (≈ 20.3 µM), the MIC (Aspergillus fumigatus [5]) was 8 µg/mL (≈ 20.3 µM) and the MIC (Cryptococcus neoformans [6]) was 8 µg/mL (≈ 20.3 µM). The MIC (Candida albicans [7]) was 32 µg/mL, the MIC (Aspergillus flavus [8]) was 64 µg/mL and the MIC (Aspergillus fumigatus [9]) was 128 µg/mL. For the same molecule, the MIC (Cryptococcus neoformans [10]) was 64 µg/mL, the MIC (Candida albicans [11]) was 64 µg/mL (≈ 163 µM) and the MIC (Aspergillus flavus [12]) was 32 µg/mL (≈ 81.3 µM). For the same molecule, the MIC (Aspergillus fumigatus [13]) was 256 µg/mL (≈ 651 µM), the MIC (Cryptococcus neoformans [14]) was 256 µg/mL (≈ 651 µM) and the MIC (Candida albicans [15]) was 64 µg/mL (≈ 163 µM). For the same molecule, the MIC (Candida albicans [16]) was 2 µg/mL, the MIC (Aspergillus flavus [17]) was 4 µg/mL and the MIC (Aspergillus fumigatus [18]) was 2 µg/mL. For the same molecule, the MIC (Cryptococcus neoformans [19]) was 2 µg/mL, the MIC (Candida albicans [20]) was 1 µg/mL and the MIC (Aspergillus flavus [21]) was 2 µg/mL. For the same molecule, the MIC (Aspergillus fumigatus [22]) was 2 µg/mL, the MIC (Cryptococcus neoformans [23]) was 4 µg/mL and the “fractional inhibitory concentration index (FICI)” value (Cryptococcus neoformans [24]) was 0.75. The “fractional inhibitory concentration index (FICI)” value (Candida albicans [25]) was 0.75, the “fractional inhibitory concentration index (FICI)” value (Aspergillus flavus [26]) was 0.75 and the “fractional inhibitory concentration index (FICI)” value (Aspergillus fumigatus [27]) was 0.75. For the same molecule, the MIC (Candida albicans [28]) was 1 µg/mL, the MIC (Aspergillus flavus [29]) was 8 µg/mL and the MIC (Aspergillus fumigatus [30]) was 4 µg/mL. For the same molecule, the MIC (Cryptococcus neoformans [31]) was 8 µg/mL, the “fractional inhibitory concentration index (FICI)” value (Candida albicans [32]) was 0.75 and the “fractional inhibitory concentration index (FICI)” value (Aspergillus flavus [33]) was 1.5. For the same molecule, the “fractional inhibitory concentration index (FICI)” value (Aspergillus fumigatus [34]) was 0.75, the “fractional inhibitory concentration index (FICI)” value (Cryptococcus neoformans [35]) was 1.5 and the MIC (Candida albicans [36]) was 4 µg/mL. It also gave an MIC (Aspergillus flavus [37]) of 4 µg/mL, an MIC (Aspergillus fumigatus [38]) of 2 µg/mL and an MIC (Cryptococcus neoformans [39]) of 8 µg/mL.
Work on `O=C(/C=C/C(=O)N1CCCC12Cc1ccccc1NC2=O)Nc1cccc([N+](=O)[O-])c1` (stereo not given) yielded an inhibition (Candida tropicalis [1]) of 83.4%, an IC50 [2] of 100 µM and a Ki [40] of 110 µM. The MIC (Candida albicans [3]) was 2 µg/mL (≈ 4.76 µM), the MIC (Aspergillus flavus [4]) was 4 µg/mL (≈ 9.51 µM) and the MIC (Aspergillus fumigatus [5]) was 4 µg/mL (≈ 9.51 µM). The MIC (Cryptococcus neoformans [6]) was 8 µg/mL (≈ 19 µM), the MIC (Candida albicans [7]) was 16 µg/mL and the MIC (Aspergillus flavus [8]) was 64 µg/mL. It also gave an MIC (Aspergillus fumigatus [9]) of 128 µg/mL, an MIC (Cryptococcus neoformans [10]) of 64 µg/mL and an MIC (Candida albicans [11]) of 32 µg/mL (≈ 76.1 µM). For the same molecule, the MIC (Aspergillus flavus [12]) was 32 µg/mL (≈ 76.1 µM), the MIC (Aspergillus fumigatus [13]) was 32 µg/mL (≈ 76.1 µM) and the MIC (Cryptococcus neoformans [14]) was 64 µg/mL (≈ 152 µM). The MIC (Candida albicans [15]) was 32 µg/mL (≈ 76.1 µM), the MIC (Candida albicans [16]) was 1 µg/mL and the MIC (Aspergillus flavus [17]) was 2 µg/mL. For the same molecule, the MIC (Aspergillus fumigatus [18]) was 0.5 µg/mL, the MIC (Cryptococcus neoformans [19]) was 4 µg/mL and the MIC (Candida albicans [20]) was 1 µg/mL. It also gave an MIC (Aspergillus flavus [21]) of 1 µg/mL, an MIC (Aspergillus fumigatus [22]) of 4 µg/mL and an MIC (Cryptococcus neoformans [23]) of 1 µg/mL. For the same molecule, the “fractional inhibitory concentration index (FICI)” value (Cryptococcus neoformans [24]) was 0.63, the “fractional inhibitory concentration index (FICI)” value (Candida albicans [25]) was 0.75 and the “fractional inhibitory concentration index (FICI)” value (Aspergillus flavus [26]) was 0.63. For the same molecule, the “fractional inhibitory concentration index (FICI)” value (Aspergillus fumigatus [27]) was 1.13, the MIC (Candida albicans [28]) was 2 µg/mL and the MIC (Aspergillus flavus [29]) was 4 µg/mL. The MIC (Aspergillus fumigatus [30]) was 4 µg/mL, the MIC (Cryptococcus neoformans [31]) was 4 µg/mL and the “fractional inhibitory concentration index (FICI)” value (Candida albicans [32]) was 1.5. For the same molecule, the “fractional inhibitory concentration index (FICI)” value (Aspergillus flavus [33]) was 1.5, the “fractional inhibitory concentration index (FICI)” value (Aspergillus fumigatus [34]) was 1.5 and the “fractional inhibitory concentration index (FICI)” value (Cryptococcus neoformans [35]) was 0.75. For the same molecule, the inhibition (Candida tropicalis [41]) was “Active”, the MIC (Candida albicans [36]) was 4 µg/mL and the MIC (Aspergillus flavus [37]) was 4 µg/mL. For the same molecule, the MIC (Aspergillus fumigatus [38]) was 4 µg/mL and the MIC (Cryptococcus neoformans [39]) was 4 µg/mL.
